Patent US4616038A, “Combination of thienamycin-type antibiotics with dipeptidase inhibitors” (Merck & Co., Inc., priority 1985, dated 1986)
Where two headings read alike, the source gives them in different places. One block for each molecule: values may come before it.

Assays:
[1] = Urinary recovery of thienamycin in the mouse with co-administered inhibitor; assay type: in vivo; details: urine
Method: In addition to this in vitro screen procedure, an in vivo sreen was followed to measure the test compound's ability to inhibit metabolism as reflected by increase in urinary recovery of thienamycin from the mouse. The procedure involves co-administration of the test compound by the intravenous or subcutaneous route at a dose-rate of 10-100 mg/kg, with 10 mg/kg thienamycin. Thienamycin recovery in the urine over a 4 hour period is then compared with its recovery in a control group to which test compound was not coadministered.
Urinary recovery of thienamycin was measured in all cases with the use of a cylinder or disc diffusion assay, conducted in a manner described in U.S. Pat. No. 3,950,357. This bioassay, with Staphylococcus aureus ATCC 6538 as the test organism, has a useful response range from 0.04 μg/ml to 3.0 μg/ml.
An in vivo assay on the mouse was conducted as follows: 20 g Charles River CD, female mice were injected subcutaneously with the chosen dose of the chemical inhibitor. About two minutes later, the dose of thienamycin was given intravenously. A control of thienamycin above was also conducted. The level of thienamycin in the urine as a % of dose was measured using a bioassay technique. The two test compound numbers are those from Table I. Compound 7 is Z-2-isovaleramido-2-butenoicacid; compound 10 is Z-2-cyclopropylcarboxamido-2-butenoic acid. […]

[2] = biological target: T1, renal dipeptidase (Sus scrofa, UniProt P22412); assay: Substrate affinity and maximal velocity of hydrolysis by renal dipeptidase; assay type: biochemical, hog; details: GDP compared with thienamycin
T1 construct: GPI-anchored disulfide-linked homodimer
T1 sequence (P22412 17-384): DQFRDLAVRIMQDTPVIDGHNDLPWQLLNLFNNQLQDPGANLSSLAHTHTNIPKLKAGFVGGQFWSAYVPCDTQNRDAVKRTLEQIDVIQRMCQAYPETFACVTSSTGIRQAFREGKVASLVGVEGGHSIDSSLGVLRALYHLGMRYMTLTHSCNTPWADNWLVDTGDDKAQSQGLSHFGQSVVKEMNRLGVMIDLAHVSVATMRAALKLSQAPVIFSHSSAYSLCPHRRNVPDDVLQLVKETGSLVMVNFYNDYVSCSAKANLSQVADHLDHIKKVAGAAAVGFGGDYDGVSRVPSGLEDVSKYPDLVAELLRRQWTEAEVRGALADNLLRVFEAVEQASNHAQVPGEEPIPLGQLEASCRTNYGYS

[3] = Plasma level of thienamycin class compound in the mouse; assay type: in vivo; details: po, 10 mg/kg; for concentration at 0.5 h: 30 minutes; for concentration at 1 h: 60 minutes; for concentration at […]: 90 minutes
Method: (§1) An in vivo assay is conducted using 34 Charles River CD female mice. Seventeen of the mice are administered 40 mg/kg of the inhibitor 7-(L-2-amino-2-carboxyethylthio)-2-(2,2-dimethylcyclopropanecarboxamido)-2-heptenoic acid subcutaneously, and an additional 40 mg/kg per os. Immediately thereafter they and an additional 17 mice are administered 10 mg/kg of the thienamycin class compoud (±)-[5R,6S]-2-ethylthio-6[(R)-1-hydroxyethyl]-pen-2-em-3-sodiocarboxylate by oral gavage. The level of the latter compound in plasma is tested at 10, 30, 60 and 90 minutes using 3 mice from each group at each time period.

[4] = Urinary recovery of thienamycin class compound in the mouse; assay type: in vivo; details: urine, po, 10 mg/kg; for dose excreted: Total
Method: as §1
The remaining 5 mice from each group are tested for urinary recovery of the thienamycin class compound with the following results.

[5] = biological target: T2, renal dipeptidase (E.C.3.4.13.11) (Sus scrofa, UniProt P22412); assay: Inhibition of glycyldehydrophenylalanine (GDP) hydrolysis by renal dipeptidase in vitro; assay type: biochemical, pig (hog)
T2 construct: solubilized preparation of dipeptidase isolated from hog kidneys; from tissue; host or cells: hog kidney
T2 sequence (P22412 17-409): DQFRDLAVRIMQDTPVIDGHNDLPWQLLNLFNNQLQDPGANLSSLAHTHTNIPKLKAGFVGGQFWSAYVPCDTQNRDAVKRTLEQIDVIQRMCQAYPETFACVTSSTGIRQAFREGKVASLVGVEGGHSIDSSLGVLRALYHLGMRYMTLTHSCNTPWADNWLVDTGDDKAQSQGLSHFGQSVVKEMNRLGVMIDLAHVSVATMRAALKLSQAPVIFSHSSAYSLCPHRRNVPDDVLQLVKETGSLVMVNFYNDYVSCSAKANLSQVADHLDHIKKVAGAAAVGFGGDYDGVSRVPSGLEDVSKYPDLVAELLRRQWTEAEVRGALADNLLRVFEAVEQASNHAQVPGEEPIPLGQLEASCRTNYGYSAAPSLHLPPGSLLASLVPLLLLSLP
Method: This measured the ability of compounds to inhibit hydrolysis of glycyldehydrophenylalanine (GDP) by a solubilized preparation of dipeptidase isolated from hog kidneys The procedure is as follows to a 1 ml. system containing 50 mM "MOPS" (3-(N-morpholino)propanesulfonic acid) buffer, pH 7.1, is added 5 μg of lyophilized enzyme, and the test compound at a final concentration of 0.1 mM. After a five minute incubation at 37° C., GDP is added to a final concentration of 0.05 mM. Incubation is continued for 10 minutes, at 37° C. and hydrolysis of GDP is measured by the change in optical density with time at 275 nm. Inhibition of the enzyme is gauged by comparison to a standard run containing no inhibitor and is expressed as the inhibitor binding constant, Ki.
A 1 ml. system of 50 mM "MOPS" buffer, pH 7.1, is used. To this is added 5 μg of the pig renal enzyme and an amount of the test compound to bring its final concentration to 0.1 mM. After a five minute incubation at 37° C., an amount of GDP is added to bring its final concentration to 0.05 mM. The system is again incubated for 10 minutes, at 37° C. Hydrolysis of GDP is measured by its change in optical density with time at 275 nm. Inhibition of the enzyme is gauged by comparison to a standard run containing no inhibitor and is presented as percent inhibition.

[6] = tested on: Staphalococcus aureus; assay: Systemic efficacy of thienamycin on the treatment of Staphylococcus aureus infections in the mouse; assay type: in vivo, Staphalococcus aureus (in mouse); details: coadministered with thienamycin
[7] = 10 mg/kg oral plus inhibitor (40 mg/kg SC + 40 mg/kg per os)
[8] = concentration producing 50% inhibition, substrate GDP 0.05 mM, pH 7.1, 37° C., read-out: Ki

Compound: C[C@@H](O)[C@H]1C(=O)N2C(C(=O)O)=C(SCCN)C[C@H]12 [Thienamycin]
dose excreted at 4 h ([1]; Table III, THM alone 10 mg/kg IV or SC, read-out: Urinary Recovery of THM, %): 30 ± 5% | dose excreted at 4 h ([1]; Table IV, THM alone 10 mg/kg SC, read-out: Urinary Recovery THM, %): 30 ± 5%

Compound: NCC(=O)NC(=Cc1ccccc1)C(=O)O [GDP, glycyldehydrophenylalanine]
maximal velocity of hydrolysis by renal dipeptidase [2]: much higher maximal velocity of hydrolysis

Compound: C/C=C(\NC(=O)CC(C)C)C(=O)O [Compound 7, Z-2-isovaleramido-2-butenoic acid]
Ki [5, 8]: 6 µM | enhancement of systemic antibacterial activity of thienamycin [6]: approximately three-fold

Compound: CC1(C)CC1C(=O)N/C(=C\CCCCSC[C@H](N)C(=O)O)C(=O)O (stereo partly shown) [Compound 17]
Ki [5]: 0.21 µM

Compound: C/C=C(\NC(=O)CC(C)CC(C)(C)C)C(=O)O (stereo not shown) [Compound 5]
Ki [5, 8]: 4.4 µM

Continued, values first:

concentration at 10 min [3, 7]: 2600 µg/mL | concentration at 10 min ([3]; compound alone, 10 mg/kg oral): 3100 µg/mL | concentration at 0.5 h [3, 7]: 4800 µg/mL | concentration at 0.5 h ([3]; compound alone, 10 mg/kg oral): 3700 µg/mL | concentration at 1 h [3, 7]: 6100 µg/mL | concentration at 1 h ([3]; compound alone, 10 mg/kg oral): 4400 µg/mL | concentration at […] [3, 7]: 3800 µg/mL | concentration at […] ([3]; compound alone, 10 mg/kg oral): 1800 µg/mL | dose excreted at 1 h [4, 7]: 1.5% | dose excreted at 1 h ([4]; compound alone, 10 mg/kg oral): 1.8% | dose excreted at 3 h [4, 7]: 2.3% | dose excreted at 3 h ([4]; compound alone, 10 mg/kg oral): 0.6% | dose excreted [4, 7]: 3.8% | dose excreted ([4]; compound alone, 10 mg/kg oral): 2.4%
Compound: CCSC1=C(C(=O)O)N2C(=O)[C@H]([C@@H](C)O)[C@H]2S1 (relative stereo) [Thienamycin Class Compound, (±)-[5R,6S]-2-ethylthio-6[(R)-1-hydroxyethyl]-pen-2-em-3-sodiocarboxylate]

Ki [5, 8]: 0.11 µM
Compound: CCCC/C=C(\NC(=O)C1CC1(C)C)C(=O)O (stereo not shown) [Compound 49]

Ki [5, 8]: 22 µM
Compound: C/C=C(\NC(=O)CC1CC1)C(=O)O [Compound 22]

Ki [5, 8]: 30 µM
Compound: C/C=C(\NC(=O)CCC)C(=O)O [Compound 20, Z-2-butyramido-2-butenoic acid]

Ki [5, 8]: 3 µM
Compound: C/C=C(\NC(=O)C1CC1(C)C(C)C)C(=O)O (stereo not shown) [Compound 44]
